In patent US12643871B2, “Aryl formamide compound containing chiral sulfur oxide or salt thereof, preparation method, herbicidal composition and use thereof” (Qingdao Kingagroot Chemical Compound Co., Ltd., priority 2019, dated 2026):

Columns and labels:
Format in all cases: in vivo
rice and other crops = test: Comparison experiment (post-emergence, Tables 4-7), crop safety; conditions: dose of 125, 60, 30, 15 g/ha
Description: (§1) The above growth control rates are fresh weight control rates.
(§2) Experiment on weeding effect in post-emergence stage: monocotyledonous and dicotyledonous weed seeds (Descurainia sophia, Capsella bursa-pastoris, Galium aparine, Stellaria media, Lithospermum arvense, Rorippa indica, Alopecurus aequalis, Beckmannia syzigachne, Sclerochloa dura, Phleum paniculatum, Bromus japonicus, Aegilops tauschii, Phalaris arundinacea, Amaranthus retroflexus, Chenopodiaceae, Commelina communis, Sonchus arvensis, convolvulus arvensis, Cirsium setosum, Solanum nigrum, Acalypha australis, Digitaria sanguinalis, Echinochloa crusgalli, Setaria viridis, Setaria glauca, Leptochloa chinensis, Monochoria vaginalis, Sagittaria trifolia, Scirpus juncoides, Cyperus rotundus, Cyperus iria, Cyperus difformis, Fimbristylis, Portulaca oleracea, Xanthium sibiricum, Pharbitis nil) and major crop seeds (wheat, corn, rice, soybean, cotton, oilseed rape, millet, sorghum, potato, sesame, ricinus) were placed in plastic pots filled with soil, then covered with 0.5-2 cm of soil, allowed to grow in a good greenhouse environment. After 2 weeks of sowing, the test plants were treated in the 2 leaf stage. The tested compounds of the present invention were respectively dissolved in acetone, then added with Tween 80 and 1.5 liter/ha of emulsifiable concentrate of methyl oleate as synergist, diluted with a certain amount of water to obtain a solution with a certain concentration, and sprayed with a spray tower onto the plants. After the application, the plants were cultured for 15 days in the greenhouse, and then the experimental results of the weeding were counted. The doses of the used compounds were 500, 250, 125, 60, 30, 15 g/ha, and the averages were obtained by repeating for three times.
(§3) If there is no clear marker, the post-seedling test conditions are the same as above, and the experimental results are shown in Tables 4-7.

[1] = system: key weeds such as Digitaria sanguinalis, Leptochloa chinensis; test: Comparison experiment (post-emergence, Tables 4-7), herbicidal activity on weeds not listed separately; conditions: for activity to key weeds such as Digitaria sanguinalis, Leptochloa chinensis compared with the corresponding racemate or S configuration: dose of 125, 60, 30, 15 g/ha
Description: as §1, §2, §3

Abutilon theophrasti = test: Weeding effect in post-emergence stage; conditions: 250 g/ha; 2 leaf stage; 15 days after application; fresh weight control rate
In short: (§4)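 Two-leaf-stage pot plants, spray-tower application at 500/250/125/60/30/15 g/ha with methyl oleate EC synergist; fresh weight control level (0–5) read at 15 days post-treatment, three replicates averaged.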

Setaria viridis = test: Weeding effect in post-emergence stage; conditions: 250 g/ha; 2 leaf stage; 15 days after application; fresh weight control rate
In short: as §4

Echinochloa crusgali = test: Weeding effect in post-emergence stage; conditions: 250 g/ha; 2 leaf stage; 15 days after application; fresh weight control rate
In short: as §4

Digitaria sanguinalis = test: Weeding effect in post-emergence stage; conditions: 250 g/ha; 2 leaf stage; 15 days after application; fresh weight control rate
In short: as §4

Amaranthus retroflexus = test: Weeding effect in post-emergence stage; conditions: 250 g/ha; 2 leaf stage; 15 days after application; fresh weight control rate
In short: as §4

Compound	safety to rice and other crops compared with the corresponding racemate or S configuration (rice and other crops)	activity to key weeds such as Digitaria sanguinalis, Leptochloa chinensis compared with the corresponding racemate or S configuration [1]	weeding effect in post-emergence stage, activity level (growth control rate), Abutilon theophrasti (Abutilon theophrasti)	weeding effect in post-emergence stage, activity level (growth control rate), Setaria viridis (Setaria viridis)	weeding effect in post-emergence stage, activity level (growth control rate), Echinochloa crusgali (Echinochloa crusgali)	weeding effect in post-emergence stage, activity level (growth control rate), Digitaria sanguinalis (Digitaria sanguinalis)	weeding effect in post-emergence stage, activity level (growth control rate), Amaranthus retroflexus (Amaranthus retroflexus)	herbicidal activity and/or crop safety compared with the corresponding racemate or S configuration ([1]; doses of 125, 60, 30, 15 g/ha, X replaced by other five membered rings)	herbicidal activity and/or crop safety compared with the corresponding racemate or S configuration ([1]; no dose stated)
Cc1nnc(NC(=O)c2ccc(C(F)(F)F)c([S@+]([O-])CCO)c2F)o1 [Compound 54]	higher safety	better activity	5 (Level 5: growth control rate is above 85%)	5 (Level 5: growth control rate is above 85%)	5 (Level 5: growth control rate is above 85%)	5 (Level 5: growth control rate is above 85%)	5 (Level 5: growth control rate is above 85%)		
CC[S@@+]([O-])c1c(C(F)(F)F)ccc(C(=O)N(c2nnc(C)o2)C(C)OC(=O)OC)c1F (stereo partly drawn) [Compound 248]	higher safety	better activity			5 (Level 5: growth control rate is above 85%)		5 (Level 5: growth control rate is above 85%)		
CCC[S@@+]([O-])c1c(C(F)F)ccc(C(=O)Nc2nnc(C)o2)c1Cl [Compound 617]	higher safety	better activity	5 (Level 5: growth control rate is above 85%)	5 (Level 5: growth control rate is above 85%)	5 (Level 5: growth control rate is above 85%)	5 (Level 5: growth control rate is above 85%)	5 (Level 5: growth control rate is above 85%)		
CCC[S@@+]([O-])c1c(C(F)(F)F)ccc(C(=O)N(c2nnc(C)o2)C(C)OC(=O)OCC)c1F (stereo partly drawn) [Compound 261]	higher safety	better activity	5 (Level 5: growth control rate is above 85%)	5 (Level 5: growth control rate is above 85%)	5 (Level 5: growth control rate is above 85%)	5 (Level 5: growth control rate is above 85%)	5 (Level 5: growth control rate is above 85%)		
Cc1nnc(NC(=O)c2ccc(C(F)(F)F)c([S@+]([O-])Cc3cn(C)nc3C)c2F)o1 [Compound 184]	higher safety	better activity			5 (Level 5: growth control rate is above 85%)		5 (Level 5: growth control rate is above 85%)		
CC(C)=NOCC[S@@+]([O-])c1c(C(F)(F)F)ccc(C(=O)Nc2nnc(C)o2)c1F [Compound 166]	higher safety	better activity	5 (Level 5: growth control rate is above 85%)	5 (Level 5: growth control rate is above 85%)	5 (Level 5: growth control rate is above 85%)	5 (Level 5: growth control rate is above 85%)	5 (Level 5: growth control rate is above 85%)		
CC[S@@+]([O-])c1c(C(F)(F)F)ccc(C(=O)Nc2nnc(C)o2)c1F [Compound 2]	higher safety	better activity	5 (Level 5: growth control rate is above 85%)	4 (Level 4: growth control rate is greater than or equal to 60% and less than 85%)	5 (Level 5: growth control rate is above 85%)	4 (Level 4: growth control rate is greater than or equal to 60% and less than 85%)	5 (Level 5: growth control rate is above 85%)		
COC[S+]([O-])c1c(C(F)(F)F)ccc(C(=O)Nc2nnc(C)o2)c1F (stereo not drawn) [Compound 69]	higher safety	better activity	5 (Level 5: growth control rate is above 85%)	5 (Level 5: growth control rate is above 85%)	5 (Level 5: growth control rate is above 85%)	5 (Level 5: growth control rate is above 85%)	5 (Level 5: growth control rate is above 85%)		
Cc1nnc(NC(=O)c2ccc(C(F)(F)F)c([S@+]([O-])CC3COC3)c2F)o1 [Compound 80]	higher safety	better activity			5 (Level 5: growth control rate is above 85%)		5 (Level 5: growth control rate is above 85%)		
CCC[S@@+]([O-])c1c(C(F)(F)F)ccc(C(=O)Nc2nnnn2C)c1F [Compound 379]			5 (Level 5: growth control rate is above 85%)	5 (Level 5: growth control rate is above 85%)	5 (Level 5: growth control rate is above 85%)	5 (Level 5: growth control rate is above 85%)	5 (Level 5: growth control rate is above 85%)	better herbicidal activity and/or crop safety	
COc1c(C(=O)Nc2nnc(C)o2)ccc(C(F)(F)F)c1[S@+]([O-])CC(C)F (stereo partly drawn) [Compound 321]			5 (Level 5: growth control rate is above 85%)	5 (Level 5: growth control rate is above 85%)	5 (Level 5: growth control rate is above 85%)	5 (Level 5: growth control rate is above 85%)	5 (Level 5: growth control rate is above 85%)		better herbicidal activity and/or crop safety
CCC[S@@+]([O-])c1c(C(F)F)ccc(C(=O)Nc2nnc(C)o2)c1OC [Compound 864]			5 (Level 5: growth control rate is above 85%)	5 (Level 5: growth control rate is above 85%)	5 (Level 5: growth control rate is above 85%)	5 (Level 5: growth control rate is above 85%)	5 (Level 5: growth control rate is above 85%)		better herbicidal activity and/or crop safety
